# Source: patent US20030224503A1, “In-situ microorganism generation for treating subsurface DNAPL source zones” (priority 2002, published 2003)
# System: groundwater microorganisms
# Settings: both DNAPL test sites (MW-12R, RW-1)
# Excerpt: The test sites are located at a property where fractured bedrock has been contaminated with PCE and TCE DNAPL to a depth of approximately 120 feet below ground surface.
smiles,measurement,setting,value
CC(=O)O [acetic acid],adaptation of groundwater microorganisms,"after injection of acetic acid, FIG. 4",increased
same,change in biomass of groundwater microorganisms,"fractured bedrock, after vs before injection of acetic acid, FIG. 3",increased
